In ChEMBL document CHEMBL4834455, “Sesquiterpenes and Steroids from an Endophytic Eutypella scoparia” (J Nat Prod, 2021):
Activity calls are given as the source filed them. The calls are words filed in the database; no cut-off is given here.

Legend:
[1] = system: Staphylococcus aureus; assay: Antibacterial activity against methicillin-resistant Staphylococcus aureus JCSC3063 assessed as bacterial growth inhibition by microbroth dilution method; format: functional
[2] = system: HeLa; assay: Antiproliferative activity against human HeLa cells assessed as cell growth inhibition measured after 48 hrs by MTT assay; format: functional, cell-based
[3] = system: Staphylococcus aureus; assay: Antibacterial activity against Staphylococcus aureus CMCC26003 assessed as bacterial growth inhibition by microbroth dilution method; format: functional
[4] = system: MDA-MB-231; assay: Antiproliferative activity against human MDA-MB-231 cells assessed as cell growth inhibition measured after 48 hrs by MTT assay; format: functional, cell-based
[5] = system: MCF7; assay: Antiproliferative activity against human MCF7 cells assessed as cell growth inhibition measured after 48 hrs by MTT assay; format: functional, cell-based
[6] = Cytotoxicity against African green monkey MARC145 cells assessed as cell growth inhibition measured after 48 hrs by MTT assay; format: cell-based; details: chlorocebus aethiops, marc145, 48 h

| Structure (SMILES) | Activity [1] | Activity [2] | Activity [3] | Activity [4] | Activity [5] | Activity [6] |
| --- | --- | --- | --- | --- | --- | --- |
| C[C@H]1CCC(=O)[C@@]2(C)CCC(C(C)(C)O)=C[C@H]12 | inactive | inactive | inactive | inactive | inactive | Non-Toxic |
| CC1=C2C[C@@H](C(C)(C)O)CC[C@]2(C)CCC1=O | inactive | inactive | inactive | inactive | inactive | Non-Toxic |
| C[C@H]1CCC(=O)[C@@]2(C)CC=C(C(C)(C)O)C[C@H]12 | inactive | inactive | inactive | inactive | inactive | Non-Toxic |
| CC1=CC(=O)C[C@@]2(C)CC[C@H](C(C)CO)C[C@H]12 (some centres not stated) | inactive | inactive | inactive | inactive | inactive | Non-Toxic |
| C=C1CCC(=O)[C@@]2(C)CC[C@H](C(C)(C)O)C[C@H]12 | inactive | inactive | inactive | inactive | inactive | Non-Toxic |
| CC[C@H](CC[C@@H](C)[C@H]1CC[C@H]2[C@@H]3CC=C4C[C@@H](O)CC[C@]4(C)[C@H]3CC[C@]12C)C(C)C [BETA-SITOSTEROL] | inactive | inactive | inactive | inactive | inactive | Non-Toxic |
| C=C(C(C)C)[C@H](O)C[C@@H](C)[C@H]1CC[C@@]2(C)C3=C(CC[C@]12C)[C@@]1(C)CCC(=O)C(C)(C)[C@@H]1CC3 | inactive | inactive | inactive | inactive | inactive | Non-Toxic |
| C=C1C[C@@H](O)C[C@@]2(C)CC[C@H](C(C)(C)O)C[C@H]12 | inactive | inactive | inactive | inactive | inactive | Non-Toxic |
| CC1=CCC[C@H]2CC3=C(CO)C(=O)OC3=C[C@]12C | inactive | inactive | inactive | inactive | inactive | Non-Toxic |
| CC1=CCCC2(C)CC[C@H](C(C)CO)C[C@H]12 (single isomer, unassigned) | – | inactive | 6.3 µg/mL | inactive | inactive | Non-Toxic |
| C=C1CCC[C@@]2(C)CC[C@H](C(C)(C)O)C[C@H]12 | inactive | inactive | inactive | inactive | inactive | Non-Toxic |
| CC(C)[C@@H](C)/C=C/[C@@H](C)[C@H]1CCC2=C3C=CC4=CC(=O)CC[C@]4(C)[C@H]3CC[C@@]21C | inactive | inactive | inactive | inactive | inactive | Non-Toxic |
| CC(=O)OCC(=O)[C@H]1CC[C@]2(C)CCC=C(C)[C@H]2C1 | inactive | inactive | inactive | inactive | inactive | Non-Toxic |
| CC1=CC(=O)C[C@@]2(C)CC[C@H](C(C)(C)O)C[C@H]12 | inactive | inactive | inactive | inactive | inactive | Non-Toxic |
| CC(C)=CCC/C(C)=C/CC/C(C)=C/CC/C=C(\C)CC/C=C(\C)CCC=C(C)C [SQUALENE] | inactive | inactive | inactive | inactive | inactive | Non-Toxic |
| CC(C)[C@H](C)/C=C/[C@@H](C(=O)O)[C@H]1CCC2=C3C=C[C@H]4CC(=O)CC[C@]4(C)[C@H]3CC[C@@]21C | inactive | inactive | inactive | inactive | inactive | Non-Toxic |
| C[C@H]1CCC(=O)[C@@]2(C)CC[C@H](C(C)(C)O)[C@H](O)[C@H]12 | inactive | inactive | inactive | inactive | inactive | Non-Toxic |
| CC1=CCC[C@@]2(C)C[C@H]3OC(=O)[C@@H](C)[C@@H]3C[C@H]12 | inactive | inactive | inactive | inactive | inactive | Non-Toxic |
